Results as given in ChEMBL document CHEMBL1201862, “PubChem BioAssay data set” (2004).
Calls of active or inactive are those of the source.

Assays:
[1] = target: T1, Nucleotide-binding oligomerization domain-containing protein 1 (Homo sapiens, UniProt Q9Y239); experiment: SAR analysis of compounds that inhibit NOD1 - Set 3. [Related pubchem assays (depositor defined):AID1566, AID1575, AID1578, AID1849, AID1852, AID2333, AID2335, AID2466]; assay type: functional
T1 sequence (Q9Y239 whole entry): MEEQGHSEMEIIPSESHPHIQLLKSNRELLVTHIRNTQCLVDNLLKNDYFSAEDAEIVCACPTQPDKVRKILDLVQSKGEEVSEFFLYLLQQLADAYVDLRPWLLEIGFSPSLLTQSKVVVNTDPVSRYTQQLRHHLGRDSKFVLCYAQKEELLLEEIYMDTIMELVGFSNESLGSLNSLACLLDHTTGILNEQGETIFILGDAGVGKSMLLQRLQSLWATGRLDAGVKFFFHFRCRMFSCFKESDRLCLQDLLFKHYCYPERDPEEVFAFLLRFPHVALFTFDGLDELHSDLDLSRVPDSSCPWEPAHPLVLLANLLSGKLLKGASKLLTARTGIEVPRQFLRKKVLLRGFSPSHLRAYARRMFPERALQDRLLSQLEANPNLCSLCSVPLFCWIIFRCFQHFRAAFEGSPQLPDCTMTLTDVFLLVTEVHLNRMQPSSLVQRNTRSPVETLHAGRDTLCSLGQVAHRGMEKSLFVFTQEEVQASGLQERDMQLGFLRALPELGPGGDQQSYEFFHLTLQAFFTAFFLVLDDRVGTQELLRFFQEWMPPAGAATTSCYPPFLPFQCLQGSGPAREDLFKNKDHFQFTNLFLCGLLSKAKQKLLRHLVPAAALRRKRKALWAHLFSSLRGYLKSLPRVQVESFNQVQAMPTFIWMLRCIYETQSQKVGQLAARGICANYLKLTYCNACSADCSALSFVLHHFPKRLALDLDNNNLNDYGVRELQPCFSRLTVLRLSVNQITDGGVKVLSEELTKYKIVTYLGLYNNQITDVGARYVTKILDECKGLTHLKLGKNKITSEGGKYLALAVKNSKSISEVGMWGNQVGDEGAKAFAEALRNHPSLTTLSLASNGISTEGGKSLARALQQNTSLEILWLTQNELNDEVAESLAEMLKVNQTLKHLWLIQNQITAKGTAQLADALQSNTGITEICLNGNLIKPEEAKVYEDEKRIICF

HEK293 [2] = experiment: SAR analysis of compounds that are cytotoxic to HEK293 - Set 2. [Related pubchem assays (depositor defined):AID1575, AID1578, AID1849, AID2001, AID2333, AID2334, AID2335, AID2337, AID2800]; assay type: functional, cell-based; details: Homo sapiens
HEK293 [3] = experiment: SAR analysis of compounds that are cytotoxic to HEK293 - Set 3. [Related pubchem assays (depositor defined):AID1575, AID1578, AID1848, AID1849, AID2001, AID2333, AID2334, AID2335, AID2337, AID2469]; assay type: functional, cell-based; details: Homo sapiens
[4] = target: T1, Nucleotide-binding oligomerization domain-containing protein 1; experiment: SAR analysis of compounds that inhibit NOD1 - Set 2. [Related pubchem assays (depositor defined):AID1566, AID1575, AID1578, AID1849, AID1852, AID2333, AID2335, AID2798]; assay type: functional
[5] = target: Nucleotide-binding oligomerization domain-containing protein 2 (Homo sapiens, UniProt Q9HC29); experiment: NOD2 inhibitors, SAR follow-up, set 2 (AID 2475); assay type: functional
Nucleotide-binding oligomerization domain-containing protein 2, sequence (Q9HC29 whole entry, the tested form may be a part): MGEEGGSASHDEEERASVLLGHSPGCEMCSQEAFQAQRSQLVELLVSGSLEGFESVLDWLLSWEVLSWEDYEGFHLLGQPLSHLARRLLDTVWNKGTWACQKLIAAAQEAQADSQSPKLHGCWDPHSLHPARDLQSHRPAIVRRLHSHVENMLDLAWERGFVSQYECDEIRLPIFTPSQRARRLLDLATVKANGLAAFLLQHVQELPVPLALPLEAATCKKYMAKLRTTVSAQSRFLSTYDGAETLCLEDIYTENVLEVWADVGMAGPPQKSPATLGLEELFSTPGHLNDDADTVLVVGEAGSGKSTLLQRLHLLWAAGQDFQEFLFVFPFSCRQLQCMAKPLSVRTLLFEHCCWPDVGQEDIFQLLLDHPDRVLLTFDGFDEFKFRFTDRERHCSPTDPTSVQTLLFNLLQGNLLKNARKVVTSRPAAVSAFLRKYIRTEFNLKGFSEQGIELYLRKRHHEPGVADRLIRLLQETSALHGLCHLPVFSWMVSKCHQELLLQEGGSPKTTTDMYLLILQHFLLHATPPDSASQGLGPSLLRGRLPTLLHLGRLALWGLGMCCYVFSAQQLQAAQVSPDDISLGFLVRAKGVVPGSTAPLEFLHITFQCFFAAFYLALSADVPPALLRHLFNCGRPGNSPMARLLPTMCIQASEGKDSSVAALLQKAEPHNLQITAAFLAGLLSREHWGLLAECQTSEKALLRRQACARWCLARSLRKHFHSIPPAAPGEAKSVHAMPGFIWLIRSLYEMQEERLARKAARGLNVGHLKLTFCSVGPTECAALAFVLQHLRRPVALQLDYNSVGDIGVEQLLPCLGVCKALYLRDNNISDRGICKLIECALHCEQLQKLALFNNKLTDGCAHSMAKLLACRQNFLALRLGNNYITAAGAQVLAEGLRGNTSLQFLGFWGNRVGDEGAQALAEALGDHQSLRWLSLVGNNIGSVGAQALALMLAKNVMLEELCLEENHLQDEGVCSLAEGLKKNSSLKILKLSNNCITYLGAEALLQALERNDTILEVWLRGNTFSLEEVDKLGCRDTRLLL

[6] = target: T1, Nucleotide-binding oligomerization domain-containing protein 1; experiment: SAR analysis of NF-kappaB dependent luciferase using DAP as an inducer - Set 2. [Related pubchem assays (depositor defined):AID1566, AID1575, AID1578, AID1579, AID1849, AID1852, AID2264]; assay type: functional
Interleukin-8 [7] = target: T2, Interleukin-8 (Homo sapiens, UniProt P10145); experiment: SAR analysis of GM-Tri-DAP induced IL-8 secretion in MCF-7/NOD1 cells - Set 2. [Related pubchem assays (depositor defined):AID1575, AID1578, AID2333]; assay type: functional, cell-based
T2 sequence (P10145 whole entry): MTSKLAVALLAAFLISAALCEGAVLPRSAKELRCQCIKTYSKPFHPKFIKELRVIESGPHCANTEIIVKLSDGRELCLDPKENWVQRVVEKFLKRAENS

Interleukin-8 [8] = target: T2, Interleukin-8; experiment: SAR analysis of Tumor necrosis factor alpha (TNF-alpha) induced IL-8 secretion in MCF-7/NOD1 cells - Set 2. [Related pubchem assays (depositor defined):AID1575, AID2250, AID2260]; assay type: functional, cell-based
[9] = target: T3, Short transient receptor potential channel 4 (Mus musculus, UniProt Q9QUQ5); experiment: mouse TRPC4 channel inhibitors, dose response, cell-based, HEK293 TRPC4/mu-opioid, Fluo-4 calcium (AID 434942); assay type: functional;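 further: potency of inhibitors blocking the TRPC4 calcium response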
T3 sequence (Q9QUQ5 whole entry): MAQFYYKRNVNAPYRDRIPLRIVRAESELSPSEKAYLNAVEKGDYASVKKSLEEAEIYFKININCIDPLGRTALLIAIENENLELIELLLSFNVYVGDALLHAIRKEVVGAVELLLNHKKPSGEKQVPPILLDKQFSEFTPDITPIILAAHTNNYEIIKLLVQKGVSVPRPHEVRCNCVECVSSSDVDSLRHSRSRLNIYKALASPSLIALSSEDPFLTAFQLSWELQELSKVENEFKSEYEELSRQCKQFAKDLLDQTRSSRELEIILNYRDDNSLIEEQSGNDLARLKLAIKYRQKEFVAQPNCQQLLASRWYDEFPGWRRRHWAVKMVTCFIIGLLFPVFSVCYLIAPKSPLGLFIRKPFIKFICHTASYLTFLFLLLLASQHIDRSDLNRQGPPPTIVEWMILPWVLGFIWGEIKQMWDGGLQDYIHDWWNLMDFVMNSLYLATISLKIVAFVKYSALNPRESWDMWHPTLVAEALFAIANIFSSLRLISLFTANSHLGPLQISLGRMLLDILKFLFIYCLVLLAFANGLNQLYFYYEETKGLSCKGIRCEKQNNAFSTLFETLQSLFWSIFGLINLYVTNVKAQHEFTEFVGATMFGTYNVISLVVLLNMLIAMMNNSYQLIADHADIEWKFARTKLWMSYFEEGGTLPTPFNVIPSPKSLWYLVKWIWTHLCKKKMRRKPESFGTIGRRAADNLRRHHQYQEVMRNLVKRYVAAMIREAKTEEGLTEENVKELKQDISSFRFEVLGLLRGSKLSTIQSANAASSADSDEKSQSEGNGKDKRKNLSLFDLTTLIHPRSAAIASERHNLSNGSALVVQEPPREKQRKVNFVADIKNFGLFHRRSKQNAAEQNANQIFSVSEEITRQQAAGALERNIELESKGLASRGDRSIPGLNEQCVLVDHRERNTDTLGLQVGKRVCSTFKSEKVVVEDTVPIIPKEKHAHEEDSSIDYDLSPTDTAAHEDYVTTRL

[10] = target: Melanin-concentrating hormone receptor 1 (Homo sapiens, UniProt Q99705); experiment: Late-stage fluorescence-based counterscreen for antagonists of the G-protein coupled receptor 7 (GPR7): cell-based dose response assay to identify antagonists of the melanin-concentrating hormone receptor 1 (MCHR1). [Related pubchem assays (depositor defined):AID1861, AID1880, AID1952, AID2148, AID2251, AID2257, AID485339]; assay type: functional;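 further: stimulated with 30 nM MCH peptide agonist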
Melanin-concentrating hormone receptor 1, sequence (Q99705 whole entry): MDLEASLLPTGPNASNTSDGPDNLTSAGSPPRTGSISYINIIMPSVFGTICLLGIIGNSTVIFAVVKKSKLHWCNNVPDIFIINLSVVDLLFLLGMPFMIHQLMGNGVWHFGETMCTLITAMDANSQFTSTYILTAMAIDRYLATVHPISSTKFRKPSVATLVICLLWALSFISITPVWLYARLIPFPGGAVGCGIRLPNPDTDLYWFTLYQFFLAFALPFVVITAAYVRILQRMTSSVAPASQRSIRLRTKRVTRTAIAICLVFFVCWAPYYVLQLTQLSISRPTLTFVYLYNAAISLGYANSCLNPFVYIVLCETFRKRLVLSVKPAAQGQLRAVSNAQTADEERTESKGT

[11] = target: T4, Neuropeptides B/W receptor type 1 (Homo sapiens, UniProt P48145); experiment: GPR7 antagonist potency, late-stage follow-up, cell-based, fluorescence, dose response (AID 463251); assay type: functional
T4 sequence (P48145 whole entry): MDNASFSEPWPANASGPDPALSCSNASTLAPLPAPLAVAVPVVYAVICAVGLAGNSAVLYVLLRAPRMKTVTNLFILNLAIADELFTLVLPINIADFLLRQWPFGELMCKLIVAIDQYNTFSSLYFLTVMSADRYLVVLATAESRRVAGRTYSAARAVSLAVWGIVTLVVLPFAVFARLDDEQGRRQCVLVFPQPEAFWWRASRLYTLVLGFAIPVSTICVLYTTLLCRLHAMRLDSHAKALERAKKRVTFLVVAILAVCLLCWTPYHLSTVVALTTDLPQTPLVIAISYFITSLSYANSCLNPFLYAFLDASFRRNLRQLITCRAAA

[12] = target: Phosphoethanolamine/phosphocholine phosphatase (Homo sapiens, UniProt Q8TCT1); experiment: SAR assay for compounds that inhibit PHOSPHO1. [Related pubchem assays (depositor defined):AID1545, AID1565, AID1574]
Phosphoethanolamine/phosphocholine phosphatase, sequence (Q8TCT1 whole entry): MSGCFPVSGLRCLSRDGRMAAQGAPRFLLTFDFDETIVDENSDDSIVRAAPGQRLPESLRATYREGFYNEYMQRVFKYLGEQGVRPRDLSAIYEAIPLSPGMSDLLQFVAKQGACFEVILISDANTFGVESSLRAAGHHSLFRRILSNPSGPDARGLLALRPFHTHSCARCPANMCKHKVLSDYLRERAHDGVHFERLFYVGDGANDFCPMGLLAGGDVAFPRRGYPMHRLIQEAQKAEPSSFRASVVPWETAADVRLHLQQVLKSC

For `CCCCn1c(SCC(=O)Nc2nnc(CC)s2)nc2c1c(=O)n(C)c(=O)n2C`, the IC50 [1] was 9.39 µM (active), the IC50 (HEK293 [2]) was > 20 µM (inactive) and the IC50 (HEK293 [3]) was > 20 µM (inactive). The IC50 [4] was 7.92 µM (active), the IC50 [5] was 7.19 µM (active) and the IC50 [6] was > 25 µM (inactive). The IC50 (Interleukin-8 [7]) was > 25 µM (inactive) and the IC50 (Interleukin-8 [8]) was > 25 µM (inactive).

In the case of `CCOC(=O)C1(Cc2cccc(OC)c2)CCN(Cc2cccc(O)c2)CC1`, the EC50 [9] is reported as 9.44 µM (active).

In the case of `O=c1c(Oc2ccc(O)cc2)c(Cl)cnn1-c1ccccc1`, the IC50 [10] is reported as 11.1 µM (inactive) and the IC50 [11] is reported as 2.8 µM (active).

In the case of `c1ccc(CNc2nc(-c3ccccc3)[n+](-c3ccccc3)s2)cc1`, the IC50 [12] is reported as 2.59 µM (inactive).
